According to patent publication US9211310B2, “Use of a Chinese medicine composition in preparing medicaments for treating secondary prevention of myocardial infarction” (TASLY PHARMACEUTICAL GROUP CO., LTD, priority 2010, dated 2015):

System: patients after acute myocardial infarction
Test: Life quality, Seattle Angina Questionnaire (SAQ), same clinical trial
Format: in vivo, human
Details: FAS
Source text: 3508 patients who were in accordance with the diagnostic standards of AMI for 28 days to 2 years and differentiated as Qi deficiency and blood stagnation syndrome by TCM were studied. 0.5 g Chinese medicine composition prepared by the method of EXAMPLE 1 (Coded as QSYQ) was administrated half an hour after meal, 3 times per day.
There were 19 questions in the Seattle angina questionnaire (SAQ), including 5 parts: physical limitation (PL), anginal stability (AS), anginal frequency (AF), treatment satisfaction (TS) and disease perception (DP). After being given necessary explanation by doctors, the questions were answered independently by patients.
They included the overall survival time, angina pectoris score, TCM symptom score and life quality score, where angina pectoris score, TCM symptom score and life quality score were evaluated at randomization, in 1st, 3rd, 6th, 9th, 12th month after treatment and 18th month after follow-up.
All evaluation results of SAQ were described during the period of observation, and Wilcoxon rank sum test was used for inter-group comparison.
The evaluation results in the SAQ were depicted in different observations, and inter-group comparison was tested by Wilcoxon Rank-sum test.

SMILES: CC(=O)Oc1ccccc1C(=O)O [Control group, aspirine]
- SAQ 5th question, ≧4 times per day: % of patients (12 months after treatment): (0.80%)
- SAQ 5th question, ≧4 times per day: number of patients (12 months after treatment): 14
- SAQ 6th question, Dissatisfied: % of patients (12 months after treatment): (0.29%)
- SAQ 6th question, Dissatisfied: number of patients (12 months after treatment): 5
- SAQ 6th question, Highly satisfied: % of patients (12 months after treatment): (25.86%)
- SAQ 6th question, Highly satisfied: number of patients (12 months after treatment): 451
- SAQ 6th question, Mostly dissatisfied: % of patients (12 months after treatment): (1.55%)
- SAQ 6th question, Mostly dissatisfied: number of patients (12 months after treatment): 27
- SAQ 6th question, Mostly satisfied: % of patients (12 months after treatment): (60.61%)
- SAQ 6th question, Mostly satisfied: number of patients (12 months after treatment): 1057
- SAQ 6th question, Partly satisfied: % of patients (12 months after treatment): (11.70%)
- SAQ 6th question, Partly satisfied: number of patients (12 months after treatment): 204
- SAQ 7th question, Dissatisfied: % of patients (12 months after treatment): (0.11%)
- SAQ 7th question, Dissatisfied: number of patients (12 months after treatment): 2
- SAQ 7th question, Highly satisfied: % of patients (12 months after treatment): (29.56%)
- SAQ 7th question, Highly satisfied: number of patients (12 months after treatment): 515
- SAQ 7th question, Mostly dissatisfied: % of patients (12 months after treatment): (0.75%)
- SAQ 7th question, Mostly dissatisfied: number of patients (12 months after treatment): 13
- SAQ 7th question, Mostly satisfied: % of patients (12 months after treatment): (59.82%)
- SAQ 7th question, Mostly satisfied: number of patients (12 months after treatment): 1042
- SAQ 7th question, Partly satisfied: % of patients (12 months after treatment): (9.76%)
- SAQ 7th question, Partly satisfied: number of patients (12 months after treatment): 170
- SAQ Question 1-1 Mildly limited, number of patients (12 months after treatment): 15
- SAQ Question 1-1 Mildly limited, percent of patients (12 months after treatment): (0.86%)
- SAQ Question 1-1 Moderately limited, number of patients (12 months after treatment): 4
- SAQ Question 1-1 Moderately limited, percent of patients (12 months after treatment): (0.23%)
- SAQ Question 1-1 Not limited, number of patients (12 months after treatment): 1659
- SAQ Question 1-1 Not limited, percent of patients (12 months after treatment): (95.13%)
- SAQ Question 1-1 Other reasons, number of patients (12 months after treatment): 4
- SAQ Question 1-1 Other reasons, percent of patients (12 months after treatment): (0.23%)
- SAQ Question 1-1 Severely limited, number of patients (12 months after treatment): 1
- SAQ Question 1-1 Severely limited, percent of patients (12 months after treatment): (0.06%)
- SAQ Question 1-1 Slightly limited, number of patients (12 months after treatment): 61
- SAQ Question 1-1 Slightly limited, percent of patients (12 months after treatment): (3.50%)
- SAQ Question 1-2 Mildly limited, number of patients (12 months after treatment): 18
- SAQ Question 1-2 Mildly limited, percent of patients (12 months after treatment): (1.03%)
- SAQ Question 1-2 Moderately limited, number of patients (12 months after treatment): 6
- SAQ Question 1-2 Moderately limited, percent of patients (12 months after treatment): (0.34%)
- SAQ Question 1-2 Not limited, number of patients (12 months after treatment): 1647
- SAQ Question 1-2 Not limited, percent of patients (12 months after treatment): (94.44%)
- SAQ Question 1-2 Other reasons, number of patients (12 months after treatment): 6
- SAQ Question 1-2 Other reasons, percent of patients (12 months after treatment): (0.34%)
- SAQ Question 1-2 Severely limited, number of patients (12 months after treatment): 0
- SAQ Question 1-2 Severely limited, percent of patients (12 months after treatment): (0.00%)
- SAQ Question 1-2 Slightly limited, number of patients (12 months after treatment): 67
- SAQ Question 1-2 Slightly limited, percent of patients (12 months after treatment): (3.84%)
- SAQ Question 1-6: Mildly limited, patients (%) (12 months after treatment): (14.93%)
- SAQ Question 1-6: Moderately limited, patients (%) (12 months after treatment): (9.70%)
- SAQ Question 1-6: Not limited, patients (%) (12 months after treatment): (40.47%)
- SAQ Question 1-6: Other reasons, patients (%) (12 months after treatment): (0.86%)
- SAQ Question 1-6: Severely limited, patients (%) (12 months after treatment): (2.58%)
- SAQ Question 1-6: Slightly limited, patients (%) (12 months after treatment): (31.46%)
- SAQ Question 1-7: Mildly limited, patients (%) (12 months after treatment): (20.46%)
- SAQ Question 1-7: Moderately limited, patients (%) (12 months after treatment): (11.10%)
- SAQ Question 1-7: Not limited, patients (%) (12 months after treatment): (20.46%)
- SAQ Question 1-7: Other limited, patients (%) (12 months after treatment): (3.29%)
- SAQ Question 1-7: Severely limited, patients (%) (12 months after treatment): (12.95%)
- SAQ Question 1-7: Slightly limited, patients (%) (12 months after treatment): (31.73%)
- SAQ Question 1-8: Mildly limited, patients (%) (12 months after treatment): (24.72%)
- SAQ Question 1-8: Moderately limited, patients (%) (12 months after treatment): (13.35%)
- SAQ Question 1-8: Not limited, patients (%) (12 months after treatment): (13.64%)
- SAQ Question 1-8: Other reasons, patients (%) (12 months after treatment): (3.95%)
- SAQ Question 1-8: Severely limited, patients (%) (12 months after treatment): (16.89%)
- SAQ Question 1-8: Slightly limited, patients (%) (12 months after treatment): (27.45%)
- 8th question: Dissatisfied, patients (%) (Baseline): (0.92%)
- 8th question: Highly satisfied, patients (%) (Baseline): (15.62%)
- 8th question: Mostly dissatisfied, patients (%) (Baseline): (6.55%)
- 8th question: Mostly satisfied, patients (%) (Baseline): (46.01%)
- 8th question: Partly satisfied, patients (%) (Baseline): (30.90%)
- 9th question: Few, patients (%) (Baseline): (21.02%)
- 9th question: Mild, patients (%) (Baseline): (36.70%)
- 9th question: Moderate, patients (%) (Baseline): (26.88%)
- 9th question: Severe, patients (%) (Baseline): (3.62%)
- 9th question: Uneffective, patients (%) (Baseline): (11.77%)
- 10th question: Dissatisfied, patients (%) (Baseline): (25.90%)
- 10th question: Highly satisfied, patients (%) (Baseline): (2.30%)
- 10th question: Mostly dissatisfied, patients (%) (Baseline): (23.72%)
